According to patent US12357711B2, “PSMA binding dual mode radiotracer and therapeutic” (Technische Universität München, priority 2019, dated 2025):
“And” between values parts separate entries of the source, which are not always exact repeats. Equal entries are not always repeated. Where two headings read alike, the source gives them in different places.

Key:
[1] = biological target: T1, human serum albumin (Homo sapiens, UniProt P02768); assay: HSA binding on Chiralpak HSA column; assay type: in vitro ADME; settings: Chiralpak HSA column (50 × 3 mm, 5 μm)
T1 construct: purchased H13H-2433
T1 sequence (P02768 25-609): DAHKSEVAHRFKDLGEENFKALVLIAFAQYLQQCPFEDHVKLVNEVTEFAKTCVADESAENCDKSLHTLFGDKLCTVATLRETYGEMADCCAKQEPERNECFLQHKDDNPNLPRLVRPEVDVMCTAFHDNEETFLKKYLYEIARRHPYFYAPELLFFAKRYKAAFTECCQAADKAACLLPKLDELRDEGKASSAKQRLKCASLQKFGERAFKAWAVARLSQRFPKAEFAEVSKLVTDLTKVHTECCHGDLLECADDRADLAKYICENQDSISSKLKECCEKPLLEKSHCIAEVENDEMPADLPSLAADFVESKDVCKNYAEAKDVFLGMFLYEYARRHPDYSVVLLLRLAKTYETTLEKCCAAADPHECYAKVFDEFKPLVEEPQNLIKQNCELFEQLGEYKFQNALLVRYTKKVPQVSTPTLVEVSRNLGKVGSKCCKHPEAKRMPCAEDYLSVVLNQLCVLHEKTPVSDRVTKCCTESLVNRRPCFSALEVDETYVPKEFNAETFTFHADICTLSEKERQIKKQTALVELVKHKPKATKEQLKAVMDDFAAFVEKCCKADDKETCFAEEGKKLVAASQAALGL
Method: The mobile phase (A: NH4OAc, 50 mM in water, pH 7 and B: isopropanol) was freshly prepared for each experiment and only used for one day. The column was kept at room temperature and each run was stopped after detection of the signal to reduce the acquisition time. All substances were dissolved in a 0.5 mg/ml concentration in 50% 2-propanol and 50% 50 mM pH 6.9 ammonium acetate buffer. […] All nine reference substances were injected consecutively to establish a non-linear regression with Origin Pro 2016G.

[2] = tested on: LNCaP tumor-bearing SCID mice; assay: Biodistribution at 1 h p.i.; assay type: in vivo
Method: FIG. 10: Biodistribution (in % ID/g) of ^18E-labeled rhPSMA tracers at 1 h p.i in LNCaP tumor-bearing SCID mice. Data are expressed as mean±SD (n=4 for rhPSMA7.1, n=5 for 7.2, n=4 for 7.3, n=5 for 7.4 and n=3 for 7-rac).

[3] = tested on: LNCaP tumor-bearing SCID mice; assay: Biodistribution at 1 h p.i. with competition (co-injected PMPA); assay type: in vivo; settings: co-injected with PMPA (8 mg/kg)
Method: FIG. 11: Biodistribution [% ID/g] of ^18F-rhPSMAs co-injected with PMPA (8 mg/kg) at 1 h p.i in LNCaP tumor-bearing SCID mice. Data are expressed as mean±SD (n=3).

[4] = biological target: T2, PSMA (Homo sapiens, UniProt Q04609); assay: Determination of IC50: PSMA affinity, competitive binding on LNCaP cells against ([125I]I-BA)KuE; settings: LNCaP cells, [125I]IB-KuE c=0.2 nM, 1 h, 4° C.
T2 construct: endogenous in cells; host or cells: LNCaP cells
T2 sequence (Q04609 whole entry): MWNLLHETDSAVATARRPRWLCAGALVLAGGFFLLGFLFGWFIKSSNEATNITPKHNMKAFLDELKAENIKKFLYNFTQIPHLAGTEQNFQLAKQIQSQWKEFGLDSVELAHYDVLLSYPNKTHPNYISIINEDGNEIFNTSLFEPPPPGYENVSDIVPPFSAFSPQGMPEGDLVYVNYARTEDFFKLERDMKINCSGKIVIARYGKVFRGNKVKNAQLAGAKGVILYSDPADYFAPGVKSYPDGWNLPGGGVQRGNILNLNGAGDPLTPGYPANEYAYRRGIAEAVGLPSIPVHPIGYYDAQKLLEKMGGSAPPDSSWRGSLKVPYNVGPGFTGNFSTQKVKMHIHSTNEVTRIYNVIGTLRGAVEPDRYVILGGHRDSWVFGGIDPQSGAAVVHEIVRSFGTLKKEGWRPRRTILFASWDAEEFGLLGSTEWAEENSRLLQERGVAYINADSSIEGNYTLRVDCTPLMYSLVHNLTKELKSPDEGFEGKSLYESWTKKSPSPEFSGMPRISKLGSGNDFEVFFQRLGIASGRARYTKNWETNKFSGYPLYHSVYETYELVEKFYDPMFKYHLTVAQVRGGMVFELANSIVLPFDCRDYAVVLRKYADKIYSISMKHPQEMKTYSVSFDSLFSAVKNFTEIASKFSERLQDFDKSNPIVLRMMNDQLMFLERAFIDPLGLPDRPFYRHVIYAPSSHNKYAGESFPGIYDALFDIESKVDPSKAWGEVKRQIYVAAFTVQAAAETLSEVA
Method: Data are expressed as mean±SD (n=3, in 3 different experiments).
After removal of the culture medium, the cells were treated once with 500 μL of HBSS (Hank's balanced salt solution, Biochrom, Berlin, Germany, with addition of 1% bovine serum albumin (BSA)) and left 15 min on ice for equilibration in 200 μL HBSS (1% BSA). […] Quantification of bound and free radioligand was accomplished in a γ-counter.

[5] = tested on: LNCaP tumor bearing mouse; assay: Radio-HPLC quantification of relative changes of each rhPSMA7 isomer after [18F]rhPSMA7-rac, 30 min p.i.; assay type: in vivo, mice; settings: blood, liver, kidney, urine, 30 min p.i. of [18F][natGa]rhPSMA7-rac
Method: Analytical reversed-phase high pressure chromatography (RP-HPLC) were performed using Shimadzu gradient systems (Shimadzu Deutschland GmbH, Neufahrn, Germany), equipped with a SPD-20A UV/Vis detector (220 nm, 254 nm). […] Eluents for all HPLC operations were water (solvent A) and acetonitrile (solvent B), both containing 0.1% trifluoroacetic acid. […] The gradient for all HPLC operations was: 5% B isocratic 0-3 min, 25-35% B 3-43 min, 95-95% B 43-48 min.
In order to quantify the relative uptake of each isomer (rhPSMA-7.1-7.4), a tumor-bearing male CB-17-SCID mouse was injected with the racemic mixture of rhPSMA-7 (180-280 MBq, SA=247-349 GBq/μmol, produced at the Klinikum rechts der Isar in a fully automated procedure). […] The eluate was diluted with water and analysed by radio-HPLC. […]
Tumour and kidneys were separately homogenised in the tissue homogeniser with 1 mL of extraction buffer (850 μL 1 M HEPES pH7.4, 100 μL 20 mM PMPA and 100 μL 1M NaCl) for 30 min. […] The eluate of each organ was diluted with water and analysed by radio-HPLC.
The organs (tumour, kidney, liver) were separately homogenised in a 2 mL tube together with 3 grinding balls (3 mm diameter) and 1 mL of extraction buffer (850 μL 1 M HEPES pH7.4, 100 μL 20 mM PMPA and 100 μL 1M NaCl) for 10 min at 30 Hz. […] The eluate of each organ was diluted with water and analysed by radio-HPLC. […]

[6] = tested on: PSMA-positive LNCaP cells; assay: Internalization in LNCaP cells, normalized to ([125I]I-BA)KuE; assay type: cell-based; settings: LNCaP cells, 1 hour, 37° C.
Method: Data is corrected for non-specific binding ([…]) and expressed as mean±SD (n=3).
Subsequent to the removal of the culture medium, the cells were washed once with 500 μL DMEM-F12 (5% BSA) and left to equilibrate for at least 15 min at 37° C. in 200 μL DMEM-F12 (5% BSA). Each well was treated with either 25 μL of either DMEM-F12 (5% BSA) or a 100 μM PMPA solution for blockade. Next, 25 μL of the ^68Ga/^18F-labeled PSMA inhibitor (5.0 nM) was added and the cells incubated at 37° C. for 60 min. The experiment was terminated by placing the 24-well plate on ice for 3 min and consecutive removal of the medium. Each well was rinsed with 250 μL HBSS and the fractions from these first two steps combined, representing the amount of free radioligand. Removal of surface bound activity was accomplished by incubation of the cells with 250 μL of ice-cold PMPA (10 μM in PBS) solution for 5 min and rinsed again with another 250 μL of ice-cold PBS. The internalized activity was determined by incubation of the cells in 250 μL 1 M NaOH and the combination with the fraction of a subsequent wash step with 250 μL 1.0 M NaOH. Each experiment (control and blockade) was performed in triplicate. Free, surface bound and internalized activity was quantified in a γ-counter. […] Data were corrected for non-specific internalization and normalized to the specific-internalization observed for the radioiodinated reference compound.

SMILES: CC(C)(C)[Si](F)(c1ccc(C(=O)NC[C@@H](NC(=O)CC[C@H](C(=O)O)N2CCN(CC(=O)[O-])CCN(CC(=O)[O-])CCN(CC(=O)[O-])CC2)C(=O)N[C@H](CCCCNC(=O)CCC(=O)NCCC[C@@H](NC(=O)CC[C@H](NC(=O)N[C@@H](CCC(=O)O)C(=O)O)C(=O)O)C(=O)O)C(=O)O)cc1)C(C)(C)C.[Ga+3] [rhPSMA7.1, [^19F][^natGa]D-Dap-R-DOTAGA-rhPSMA7]
- HSA Binding [1]: 97.7%
- Biodistribution adrenals [2]: 2.0 ± 0.25 % ID/g
- Biodistribution blood [2]: 0.53 ± 0.13 % ID/g
- Biodistribution bone [2]: 0.50 ± 0.31 % ID/g
- Biodistribution heart [2]: 0.53 ± 0.03 % ID/g
- Biodistribution intestine [2]: 0.30 ± 0.16 % ID/g
- Biodistribution kidneys [2]: 220 ± 24.8 % ID/g
- Biodistribution liver [2]: 0.75 ± 0.62 % ID/g
- Biodistribution lung [2]: 1.1 ± 0.21 % ID/g
- Biodistribution muscle [2]: 0.32 ± 0.30 % ID/g
- Biodistribution pancreas [2]: 0.45 ± 0.12 % ID/g
- Biodistribution spleen [2]: 20.0 ± 4.2 % ID/g
- Biodistribution stomach [2]: 0.28 ± 0.17 % ID/g
- Biodistribution tumor ([2]; LNCaP tumor): 14.1 ± 4.1 % ID/g
- Biodistribution adrenals [3]: 0.003 ± 0.004 % ID/g
- Biodistribution blood [3]: 0.86 ± 0.40 % ID/g
- Biodistribution bone [3]: 0.33 ± 0.24 % ID/g
- Biodistribution heart [3]: 0.37 ± 0.16 % ID/g
- Biodistribution intestine [3]: 0.66 ± 0.32 % ID/g
- Biodistribution kidneys [3]: 10.9 ± 2.5 % ID/g
- Biodistribution liver [3]: 0.43 ± 0.07 % ID/g
- Biodistribution lung [3]: 0.85 ± 0.29 % ID/g
- Biodistribution muscle [3]: 0.17 ± 0.15 % ID/g
- Biodistribution pancreas [3]: 0.16 ± 0.10 % ID/g
- Biodistribution spleen [3]: 0.21 ± 0.08 % ID/g
- Biodistribution stomach [3]: 0.97 ± 0.81 % ID/g
- Biodistribution tumor ([3]; LNCaP tumor): 0.94 ± 0.22 % ID/g
- IC50 ([4]; HBSS+1% BSA, single measurements, read-out: individual IC50 measurements): 5.04 nM and 7.11 nM and 8.31 nM and 4.97 nM and 6.44 nM and 8.74 nM and 6.91 nM and 7.27 nM
- IC50 ([4]; mean of individual measurements, read-out: IC50 Mean): 6.85 nM
- percentage change of isomer in sample with respect to its proportion in the injected solution [5]: largest positive percentage change
- individual internalization rates ([6]; c=0.5 nM, single measurements): 77.5 % of [^125I]IB-KuE and 61.8 % of [^125I]IB-KuE and 70.6 % of [^125I]IB-KuE and 68.0 % of [^125I]IB-KuE and 67.9 % of [^125I]IB-KuE and 71.5 % of [^125I]IB-KuE
- internalization rate Mean ([6]; mean): 69.55 % of [^125I]IB-KuE
